{
  "source": "patent US20070098649A1",
  "about": "“Method and composition for controlling oral pathogens” (priority 2004, published 2007)",
  "key": {"[1]": {"system": "Streptococcus mutans", "test": "MIC microdilution assay", "format": "cell-based", "details": "Streptococcus mutans, S. mutans"}, "[2]": {"system": "Streptococcus gordonii", "test": "MIC microdilution assay", "format": "cell-based", "details": "Streptococcus gordonii, S. gordonii"}, "[3]": {"system": "Actinobacillus actinomycetemcomitans", "test": "MIC microdilution assay", "format": "cell-based", "details": "Aggregatibacter actinomycetemcomitans"}, "[4]": {"system": "Fusobacterium nucleatum", "test": "MIC microdilution assay", "format": "cell-based", "details": "Fusobacterium nucleatum, F. nucleatum"}, "[5]": {"system": "Porphymonas gingivalis", "test": "MIC microdilution assay", "format": "cell-based", "details": "Porphyromonas gingivalis, P. gingivalis"}, "[6]": {"system": "Escherichia coli", "test": "MIC microdilution assay", "format": "cell-based", "details": "E. coli, agent alone, read-out: MIC of the antimicrobial agents alone"}, "[7]": {"system": "Staphylococcus aureus", "test": "MIC microdilution assay", "format": "cell-based", "details": "S. aureus, agent alone, read-out: MIC of the antimicrobial agents alone"}, "[8]": {"system": "Pseudomonas aeruginosa", "test": "MIC microdilution assay", "format": "cell-based", "details": "Pseudomonas aeruginosa; P. aeruginosa; agent alone; read-out: MIC of the antimicrobial agents alone"}, "[9]": {"system": "Streptococcus mutans", "test": "Combination determination (FIC, MIC in combination)", "format": "cell-based", "details": "S. mutans", "description": "(§1) The alkaloids were tested in pair-wise combinations (fractional inhibitory concentrations, FIC) against all the bacteria to determine whether interactions were antagonistic (FIC>1), additive (0.5<FIC<1), or synergistic (FIC<0.5). The FIC was calculated by the following: (MIC Acombination/MIC Aalone)+(MIC Bcombination/MIC Balone). Where A represents compound 1 and B represents compound 2. […] In the case of A. actinomycetemcomitans and P. aeruginosa, CHX was used at 0.78 to 50 μg ml^−1. Berberine (B-CG and B-S) was used at concentrations 0.9 to 250 μg ml^−1. The antibacterial efficacy of berberine (1.95 to 500 μg ml^−1) was tested in combination against P. aeruginosa with CHX (0.78 to 50 μg ml^−1) (Sigma Chemicals) and the polymyxin antibiotic Col (0.04 to 25 μg ml^−1) (Sigma Chemicals). The plates were incubated for 24 hours.\nCHX was diluted from left to right at 10 to 0.08 μg ml^−1 ([…] 1 to 8), berberine was diluted from top to bottom at 250 to 0.09 μg ml^−1 ([…] 1 to 8). Column 9 was the cell control, column 10 was berberine alone (250 to 0.09 μg ml^−1); and column 11 was CHX alone (10 to 0.08 μg ml^−1). Row H was the solvent control (8% DMSO, H1 to H8). Column 12 was the media blank. The dilution assay was designed such that A1 contained the highest concentration of both agents (berberine 250 μg ml^−1 and CHX 10 μg ml^−1). The final concentration of berberine in wells A2 to A8 was […]. The FIC value was calculated from well C6. FIC was calculated by: (MIC Acombination/MIC Aalone)+(MIC Bcombination/MIC Balone)."}, "[10]": {"system": "Actinobacillus actinomycetemcomitans", "test": "Combination determination (FIC, MIC in combination)", "format": "cell-based", "details": "A. actinomycetemcomitans grown under anaerobic conditions; berberine (B-CG) combined with CHX, Tet or Dox; MIC of the named agent in the combination", "description": "as §1"}, "[11]": {"system": "Escherichia coli", "test": "Combination determination (FIC, MIC in combination)", "format": "cell-based", "details": "E. coli; berberine (B-CG) combined with CHX, Tet or Dox; MIC of the named agent in the combination", "description": "as §1"}, "[12]": {"system": "Fusobacterium nucleatum", "test": "Combination determination (FIC, MIC in combination)", "format": "cell-based", "details": "F. nucleatum; berberine (B-CG) combined with CHX, Tet or Dox; MIC of the named agent in the combination", "description": "as §1"}, "[13]": {"system": "Porphymonas gingivalis", "test": "Combination determination (FIC, MIC in combination)", "format": "cell-based", "details": "P. gingivalis; berberine (B-CG) combined with CHX, Tet or Dox; MIC of the named agent in the combination", "description": "as §1"}, "[14]": {"system": "Pseudomonas aeruginosa", "test": "Combination determination (FIC, MIC in combination)", "format": "cell-based", "details": "P. aeruginosa; berberine combined with CHX or Col; MIC of the named agent in the combination", "description": "as §1"}, "[15]": {"system": "Staphylococcus aureus", "test": "Combination determination (FIC, MIC in combination)", "format": "cell-based", "details": "S. aureus; berberine (B-CG) combined with CHX, Tet or Dox; MIC of the named agent in the combination", "description": "as §1"}, "[16]": {"system": "Streptococcus gordonii", "test": "Combination determination (FIC, MIC in combination)", "format": "cell-based", "details": "S. gordonii; berberine (B-CG) combined with CHX, Tet or Dox; MIC of the named agent in the combination", "description": "as §1"}, "[17]": {"system": "mice", "details": "cited from earlier work; for LD50: mice"}, "[18]": {"system": "rabbits", "details": "s.c.; cited from earlier work"}, "[19]": {"details": "in vivo, po; cited from earlier work"}, "[20]": {"details": "rat, in vivo, iv; cited from earlier work"}, "[21]": {"system": "patients with heart conditions", "details": "human, in vivo; cited from earlier work"}, "[22]": {"system": "mice", "details": "15 mg/kg i.p.; cited from earlier work"}, "[23]": {"system": "albino rats", "details": "i.p. 50 mg/kg; cited from earlier work"}, "[24]": {"system": "rats", "details": "single intraintestinal injection 10 mg/kg into the duodenum; cited from earlier work"}, "[25]": {"system": "rats", "details": "intravenous 0.1-6.0 mg/kg; cited from earlier work"}, "[26]": {"system": "dogs", "details": "intravenous 0.1-6.0 mg/kg; cited from earlier work"}, "[27]": {"system": "cats", "details": "intravenous 0.1-6.0 mg/kg; cited from earlier work"}, "[28]": {"system": "S. pyogenes", "details": "at sub-MIC levels; cited from earlier work"}, "[29]": {"system": "dogs", "details": "dog, in vivo; cited from earlier work"}, "[30]": {"details": "agent alone, read-out: MIC of the antimicrobial agents alone"}},
  "note": "Where a name gives a salt, the structure may show the parent alone. Read-outs that look alike come from different tables or passages of the source. Marks after values point to notes of the source that are not given here.",
  "data": [
    {"smiles": "COc1ccc2cc3[n+](cc2c1OC)CCc1cc2c(cc1-3)OCO2", "note": "[Berberine, 5,6-dihydro-9,10-dimethoxybenzo[g]-1,3-benzodioxolo[5,6-a]quinolizinium]", "values": [
      {"measurement": "MIC", "setting": "[1]; [30]", "value": 125, "unit": "µg/mL"},
      {"measurement": "MIC", "setting": "[1]; Sm, read-out: MIC of Goldenseal Alkaloids Against Selected Oral Pathogens", "value": 125, "unit": "µg/mL"},
      {"measurement": "MIC", "setting": "[2]; [30]", "value": 250, "unit": "µg/mL"},
      {"measurement": "MIC", "setting": "[2]; Sg, read-out: MIC of Goldenseal Alkaloids Against Selected Oral Pathogens", "value": 250, "unit": "µg/mL"},
      {"measurement": "MIC", "setting": "[3]; A. actinomycetemcomitans grown under anaerobic conditions, agent alone, read-out: MIC of the antimicrobial agents alone", "value": "> 500", "unit": "µg/mL"},
      {"measurement": "MIC", "setting": "[3]; Aa, A. actinomycetemcomitans, read-out: MIC of Goldenseal Alkaloids Against Selected Oral Pathogens", "value": "> 500", "unit": "µg/mL"},
      {"measurement": "MIC", "setting": "[4]; [30]", "value": 15.6, "unit": "µg/mL"},
      {"measurement": "MIC", "setting": "[4]; Fn, read-out: MIC of Goldenseal Alkaloids Against Selected Oral Pathogens", "value": 15.6, "unit": "µg/mL"},
      {"measurement": "MIC", "setting": "[5]; [30]", "value": 23.4, "unit": "µg/mL"},
      {"measurement": "MIC", "setting": "[5]; Pg, read-out: MIC of Goldenseal Alkaloids Against Selected Oral Pathogens", "value": 15.6, "unit": "µg/mL"},
      {"measurement": "MIC", "setting": "[6]", "value": 250, "unit": "µg/mL"},
      {"measurement": "MIC", "setting": "[7]", "value": 250, "unit": "µg/mL"},
      {"measurement": "MIC", "setting": "[8]", "value": "> 500", "unit": "µg/mL"},
      {"measurement": "MIC of the antimicrobial agents in combination", "setting": "[9]; berberine (B-CG) combined with CHX, Tet or Dox, MIC of the named agent in the combination", "value": 62.5, "unit": "µg/mL"},
      {"measurement": "MIC alone used for the FIC", "setting": "[9]; same plate, 48 h", "value": 125, "unit": "µg/mL"},
      {"measurement": "MIC in combination used for the FIC", "setting": "[9]; well C6, berberine (B-G) with CHX, 48 h", "value": 31.25, "unit": "µg/mL"},
      {"measurement": "MIC of the antimicrobial agents in combination", "setting": "[10]", "value": 250, "unit": "µg/mL"},
      {"measurement": "MIC of the antimicrobial agents in combination", "setting": "[11]", "value": 125, "unit": "µg/mL"},
      {"measurement": "MIC of the antimicrobial agents in combination", "setting": "[12]", "value": 3.9, "unit": "µg/mL"},
      {"measurement": "MIC of the antimicrobial agents in combination", "setting": "[13]", "value": 7.81, "unit": "µg/mL"},
      {"measurement": "MIC of the antimicrobial agents in combination", "setting": "[14]", "value": "250** μg ml^−1"},
      {"measurement": "MIC of the antimicrobial agents in combination", "setting": "[15]", "value": 62.5, "unit": "µg/mL"},
      {"measurement": "MIC of the antimicrobial agents in combination", "setting": "[16]", "value": 62.5, "unit": "µg/mL"},
      {"measurement": "LD50", "setting": "[17]; oral", "value": 329, "unit": "mg/kg"},
      {"measurement": "LD50", "setting": "[17]; s.c.", "value": 18, "unit": "mg/kg"},
      {"measurement": "LD dose", "setting": "[17]; mouse, in vivo, ip", "value": "greater than 500 mg/kg"},
      {"measurement": "LD50", "setting": "[18]", "value": 100, "unit": "mg/kg"},
      {"measurement": "Further time to clear", "setting": "[19]", "value": "four"},
      {"measurement": "Time to reach peak concentrations in plasma", "setting": "[19]", "value": "four"},
      {"measurement": "Tissue distribution", "setting": "[20]", "value": "highest concentrations of berberine were found in the kidneys"},
      {"measurement": "Adverse effect in heart failure patients", "setting": "[21]", "value": "ventricular tachycardia in some subjects"}
    ]},
    {"smiles": "COc1ccc2cc3[n+](cc2c1OC)CCc1cc2c(cc1-3)OCO2", "note": "[berberine sulfate]", "values": [
      {"measurement": "Protection from amphetamine toxicity", "setting": "[22]", "value": "no significant effect"},
      {"measurement": "Effect on rectal temperature", "setting": "[23]", "value": "reduced rectal temperature"},
      {"measurement": "Effect on the volume or acidity", "setting": "[24]", "value": "no effect"},
      {"measurement": "Effect on blood pressure", "setting": "[25]", "value": "reduced the blood pressure"},
      {"measurement": "Effect on blood pressure", "setting": "[26]", "value": "reduced the blood pressure"},
      {"measurement": "Effect on blood pressure", "setting": "[27]", "value": "reduced the blood pressure"},
      {"measurement": "Adherence of S. pyogenes to epithelial cells", "setting": "[28]", "value": "inhibited the adherence"},
      {"measurement": "Number of apomorphine-induced vomits", "setting": "[29]", "value": "significantly increased"}
    ]}
  ]
}
